Experimental findings from patent publication US20150315153A1, “NOVEL SULFONIC ACID DERIVATIVE COMPOUND, PHOTOACID GENERATOR, CATIONIC POLYMERIZATION INITIATOR, RESIST COMPOSITION, AND CATIONICALLY POLYMERIZABLE COMPOSITION” (ADEKA CORPORATION, priority 2012, published 2015) are described below.

The nature of data set [1]: Solubility to propylene glycol monomethyl ether acetate at 25° C. The format is physicochemical. As to conditions: for Solubility: concentration at which no compound was left undissolved; for solubility, ranking among compounds grouped by sulfonate moiety: among Compound Nos. 4, 5, 7 and 10, among Compound Nos. 6, 38 and 40. As to the method:
(§1) Compound Nos. 4, 5, 7, 10, 20, 6, 35, 38 and 40 and Comparative Compound 1 represented by the Formula below were each dissolved in acetonitrile, and their absorption spectra were measured using a […] U-3010 to determine the values of ?max and (molar extinction coefficient) for absorption in a range of 300 nm to 400 nm as well as the value of ε at 365 nm. […] As for the solubility, the concentration of each compound was increased by 1%-by-mass increments and the concentration at which no compound was left undissolved was determined and, in the results shown in Table 4, the solubility is indicated in terms of this concentration.

Data set [2] in a line: UV absorption spectrum in acetonitrile. In kind it is physicochemical. Conditions: for Maximum absorption wavelength: absorption in a range of 300 nm to 400 nm; for ε at maximum absorption wavelength (molar extinction coefficient): second line of the cell. As to the method:
as §1

Data set [3] can be described thus: Weight loss starting point (thermal analysis). The format is physicochemical.
[4] abbreviates: propylene glycol monomethyl ether acetate, 25° C.

With `CCCCC(CC)Cc1ccc2c3c(cccc13)C(=O)N(OS(=O)(=O)c1ccc(C)cc1)C2=O` (centres unmarked) [Compound No. 38], the melting point (in general, the temperature of the solid-liquid transition) was 129.6 °C. In data set [1] (setting [4]), this molecule registered a Solubility of 1.6 % by mass. In addition, in data set [2], the “ε at 365 nm” value was 1.24 × 10^4, the Maximum absorption wavelength is 345 nm and the “ε at maximum absorption wavelength (molar extinction coefficient)” value (shortened to “ε at maximum absorption wavelength”) is listed as 1.76 × 10^4. Besides, the “Weight loss starting point” value in data set [3] is 304.9 °C.

For the molecule `CCCCc1ccc2c3c(cccc13)C(=O)N(OS(=O)(=O)c1c(C(C)C)cc(C(C)C)cc1C(C)C)C2=O` [Compound No. 7], the melting point is 131 °C. In data set [1] (setting [4]), this molecule yielded a Solubility of 5 % by mass. Also, in data set [2], the “ε at 365 nm” value is 1.06 × 10^4, the Maximum absorption wavelength is recorded as 344 nm and the “ε at maximum absorption wavelength” value is reported as 1.65 × 10^4. The “Weight loss starting point” value in data set [3] is 267 °C.

`CCc1ccc2c3c(cccc13)C(=O)N(OS(=O)(=O)C(F)(F)F)C2=O` [Compound No. 20] showed a melting point of 145 °C. The molecule further returned a Solubility in data set [1] (setting [4]) of 5 % by mass. In addition, in data set [2], the “ε at 365 nm” value is on record as 9.95 × 10^3, the Maximum absorption wavelength came out at 344 nm and the “ε at maximum absorption wavelength” value was 1.64 × 10^4. In addition, in data set [3], the “Weight loss starting point” value is 253 °C.

`CC1(C)C2CCC1(CS(=O)(=O)ON1C(=O)c3cccc4cccc(c34)C1=O)C(=O)C2` (centres unmarked) [Comparative Compound 1, reference compound] yielded a Solubility in data set [1] (setting [4]) of 2 % by mass. Moreover, in data set [2], the “ε at 365 nm” value was 6.48 × 10^2, the Maximum absorption wavelength was found to be 335 nm and the “ε at maximum absorption wavelength” value is on record as 1.34 × 10^4.

As to `CCCCCCCCCCCCCCc1ccc2c3c(cccc13)C(=O)N(OS(=O)(=O)c1ccc(C)cc1)C2=O` [Compound No. 40], the melting point turned out to be 95.5 °C. In data set [1] (setting [4]), this molecule showed a Solubility of 1.9 % by mass. In data set [2], the “ε at 365 nm” value was 1.05 × 10^4, the Maximum absorption wavelength is reported as 344.5 nm and the “ε at maximum absorption wavelength” value was 1.68 × 10^4. Moreover, the “Weight loss starting point” value in data set [3] stood at 301.8 °C.

In turn, `CCCCc1ccc2c3c(cccc13)C(=O)N(OS(=O)(=O)c1ccc(C)cc1)C2=O` [Compound No. 6] gave a melting point of 145.1 °C. Further, the “solubility, ranking among compounds grouped by sulfonate moiety” value in data set [1] is “highest solubility”. Moreover, in data set [1] (setting [4]), the Solubility is reported as 2.3 % by mass. Further, in data set [2], the “ε at 365 nm” value is 1.02 × 10^4, the Maximum absorption wavelength is on record as 343.5 nm and the “ε at maximum absorption wavelength” value is reported as 1.67 × 10^4. The “Weight loss starting point” value in data set [3] worked out at 314.8 °C.

For the molecule `CCCCc1ccc2c3c(cccc13)C(=O)N(OS(=O)(=O)c1ccc(C(F)(F)F)cc1)C2=O` [Compound No. 35], the melting point amounted to 192 °C. Besides, the Solubility in data set [1] (setting [4]) was 2.0 % by mass. Moreover, in data set [2], the “ε at 365 nm” value is 1.11 × 10^4, the Maximum absorption wavelength amounted to 345.0 nm and the “ε at maximum absorption wavelength” value was 1.68 × 10^4. In addition, the “Weight loss starting point” value in data set [3] was 302 °C.

The molecule `CCCCc1ccc2c3c(cccc13)C(=O)N(OS(=O)(=O)C(F)(F)F)C2=O` [Compound No. 4] yielded a melting point of 110 °C. Further, the “solubility, ranking among compounds grouped by sulfonate moiety” value in data set [1] was “highest solubility”. Further, in data set [1] (setting [4]), the “solubility (in words)” value is “high solubility”; the “solubility, comparison between Compound Nos. 4 and 20 (different Xs)” value is recorded as “higher solubility”; the Solubility turned out to be 20 % by mass. For the same molecule, in data set [2], the “ε at 365 nm” value is recorded as 1.16 × 10^4, the Maximum absorption wavelength is 346 nm and the “ε at maximum absorption wavelength” value is listed as 1.65 × 10^4. Moreover, the “Weight loss starting point” value in data set [3] is 250 °C.

Molecule `CCCCc1ccc2c3c(cccc13)C(=O)N(OS(=O)(=O)CC13CCC(CC1=O)C3(C)C)C2=O` (centres unmarked) [Compound No. 10] showed a melting point of 134 °C. The Solubility in data set [1] (setting [4]) was determined as 5 % by mass. For the same molecule, in data set [2], the “ε at 365 nm” value is on record as 1.17 × 10^4, the Maximum absorption wavelength was 346 nm and the “ε at maximum absorption wavelength” value is recorded as 1.68 × 10^4. Besides, the “Weight loss starting point” value in data set [3] came out at 279 °C.
